This note sets out measurements from paper PMC6934184, “Selective DNA-PKcs inhibition extends the therapeutic index of localized radiotherapy and chemotherapy” (The Journal of Clinical Investigation, 2019).

For this assay, the system named is Huh7 cells. Put plainly: Huh7 cells with single doxorubicin-loaded DC M1 bead (SRB cell density, γH2AX Western). The class given is cell-based, Human. As to the method:
Exponentially growing HAP-1 DNA-PK proficient or deficient cells were seeded into 6-well plates and allowed to re-attach. Cells were then incubated with vehicle (DMSO) or NU5455 (5 µM) 1 hour prior to irradiation and for a further 24 hours post-irradiation. Cells were then washed in PBS and incubated in drug-free medium to allow for colony formation.
To quantify the number of proliferating versus confluent cells, cells were pulsed with 5-ethynyl-2’-deoxyuridine (EdU), and labeled using the Click-iT Plus EdU Alexa Fluor 647 Flow Cytometry Assay Kit together with FxCycle Violet Stain to label DNA (both Thermo Fisher) following the manufacturer’s instructions. Samples of cells taken from tho se used in the clonogenic assay were used to confirm the percentage of cells in each cell cycle phase.
Samples were acquired on a Symphony A5 flow cytometer (Becton Dickinson, UK).
Cell cycle phase status was also confirmed by microscopy, using cells grown on coverslips i n 6-well plates. […] Coverslips were mounted using Prolong Glass with NucBlue (ThermoFisher) and images were acquired on the Leica TCS SP8 confocal fluorescence […]
Treated cells were fixed with 10% (w/v) trichloroacetic acid (Fisher) at 4°C overnight. Cells were stained with sulphorhodamine B (SRB, 0.4% (w/v) in water), and cell density quantified […]
by determining the absorbance at 570 nm of SRB stain dissolved in Tris base (10 mM, pH 10.5) using a spectrophotometer (BMG Labtech). […]
Blood samples were centrifuged at 6700 x g for 3 minutes, the plasma removed and stored at -20°C prior to analysis for drug by HPLC with fluorescence detection. […]
Samples (20 µl) were applied to a 10 x 0.46 cm Genesis C18 4 µm column (Grace Vydac) fitted with an in-line filter. […] Analytes were detected by fluorescence at 390 nm following excitation at 242 nm. Plasma concentrations were determined using linear standard curves (0.01 µM – 10 µM, R2 > 0.98) generated by extracting compounds from […]
Readings were taken every 2 hours for the first 10 hours and then at 24 hour intervals. […]

For the compound `CN(C(=O)CN1CCOCC1)c1ccc2sc3c(-c4cccc5c(=O)cc(N6CC7CCC(C6)O7)oc45)cccc3c2c1` [NU5455], the “inhibition of cell density, single agent” value (96 hours continuous, NU5455 1 μM or a single doxorubicin-loaded bead) is given as ~ 20%. The “reduction of cell density, combination treatment” value (96 hours, NU5455 1 μM + single doxorubicin-loaded bead) is reported as 57.7% ± 2.1%. Also, the “γH2AX protein levels (DNA damage induced by released doxorubicin)” value (NU5455 1 μM + doxorubicin-loaded bead, 24–96 hours, Western blotting) is “augment and sustain the DNA damage”.
